Data set [1] can be described thus: Pharmacokinetics in mice (plasma exposure after oral administration). Format: in vivo. The following applies: mouse, ICR mice, oral (i.g.) 3 mg/kg, read-out: After oral administration of 3 mg/kg, mouse plasma exposure AUCinf.
Data set [2] addresses T1, androgen receptor (AR) splicing variant AR-v7 (Homo sapiens, UniProt P10275).
T1 construct: The degradation activity of compounds on AR-v7 in 22RV1 cells; host or cells: 22RV1 cells
T1 sequence (P10275 1-644 isoform P10275-3): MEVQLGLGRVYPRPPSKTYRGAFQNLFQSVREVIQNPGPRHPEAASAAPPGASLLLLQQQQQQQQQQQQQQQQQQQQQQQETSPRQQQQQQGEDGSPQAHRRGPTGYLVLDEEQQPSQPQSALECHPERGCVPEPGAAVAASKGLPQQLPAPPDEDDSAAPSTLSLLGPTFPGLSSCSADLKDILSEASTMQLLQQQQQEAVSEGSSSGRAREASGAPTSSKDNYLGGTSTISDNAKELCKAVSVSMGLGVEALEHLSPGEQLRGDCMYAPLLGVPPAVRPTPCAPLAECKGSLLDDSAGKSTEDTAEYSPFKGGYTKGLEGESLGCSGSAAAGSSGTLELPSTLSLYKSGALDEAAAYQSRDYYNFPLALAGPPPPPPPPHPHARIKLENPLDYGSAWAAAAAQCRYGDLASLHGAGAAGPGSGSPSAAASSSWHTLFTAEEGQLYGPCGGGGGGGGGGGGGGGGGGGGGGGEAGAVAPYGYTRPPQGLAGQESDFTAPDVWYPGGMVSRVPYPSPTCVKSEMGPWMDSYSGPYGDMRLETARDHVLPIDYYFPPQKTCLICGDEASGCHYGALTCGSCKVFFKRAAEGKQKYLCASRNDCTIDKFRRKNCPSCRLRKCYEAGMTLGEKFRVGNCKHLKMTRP
As to the kind of experiment: Degradation activity on androgen receptor splicing variant AR-v7 in 22RV1 cells (ELISA). Format: cell-based. The following applies: AR-v7 degradation in 22RV1 cells, 48 h, class symbols.

Data set [3] deals with 22RV1 cells. The following applies: Homo sapiens, 22Rv1, 144 h, read-out: 22RV1 IC50 (nM), 22RV1 cells, 6 days culture, CCK-8, OD 450 nm.

For the molecule `O=C1CCC(N2C(=O)c3ccc(N[C@H]4C[C@H](Oc5ccc(C6(c7ccc(OCc8ccnc(N9CC%10(COC%10)C9)n8)cc7)COC6)cc5)C4)cc3C2=O)C(=O)N1` (stereo partly drawn) [Example 355, 5-(((1r,3r)-3-(4-(3-(4-((2-(2-oxa-6-azaspiro[3.3]heptane-6-yl)pyrimidin-4-yl)methoxy)phenyl)oxetane-3-yl)phenoxy)cyclobutyl)amino)-2-(2,6-dioxopiperidin-3-yl)isoindolin-1,3-dione], the AUC(0-inf) in data set [1] lay in the range of 5 to 30 µg·h/mL. In data set [2], this molecule displayed a DC50 of less than 0.01 µM. In data set [3], the IC50 was 2 nM.
In the same order, the values of `O=C1CCC(N2C(=O)c3ccc(N[C@H]4C[C@H](Oc5ccc(C6(c7ccc(OCc8ccnc(N9CC%10(COC%10)C9)n8)cc7)CCC6)cc5)C4)cc3C2=O)C(=O)N1` (stereo partly drawn) [Example 358, 5-(((1r,3r)-3-(4-(1-(4-((2-(2-oxa-6-azaspiro[3.3]heptane-6-yl)pyrimidin-4-yl)methoxy)phenyl)cyclobutyl)phenoxy)cyclobutyl)amino)-2-(2,6-dioxopiperidin-3-yl)isoindolin-1,3-dione] are 1 to 5 µg·h/mL, less than 0.01 µM and 9 nM.
In the same order, the values of `O=C1CCC(N2C(=O)c3ccc(N[C@H]4C[C@@H](Oc5ccc(C6(c7ccc(OCc8ccnc(N9CC%10(COC%10)C9)n8)cc7)CCC6)cc5)C4)cc3C2=O)C(=O)N1` (stereo partly drawn) [Example 359, 5-(((1s,3s)-3-(4-(1-(4-((2-(2-oxa-6-azaspiro[3.3]heptane-6-yl)pyrimidin-4-yl)methoxy)phenyl)cyclobutyl)phenoxy)cyclobutyl)amino)-2-(2,6-dioxopiperidin-3-yl)isoindolin-1,3-dione] are 1 to 5 µg·h/mL, less than 0.01 µM and 6 nM.
As for `O=C1CCC(N2C(=O)c3ccc(N[C@H]4C[C@H](Oc5ccc(C6(c7ccc(OCc8ccnc(N9CC%10(COC%10)C9)n8)cc7)CCCC6)cc5)C4)cc3C2=O)C(=O)N1` (stereo partly drawn) [Example 360, 5-(((1r,3r)-3-(4-(1-(4-((2-(2-oxa-6-azaspiro[3.3]heptane-6-yl)pyrimidin-4-yl)methoxy)phenyl)cyclopentyl)phenoxy)cyclobutyl)amino)-2-(2,6-dioxopiperidin-3-yl)isoindolin-1,3-dione], in data set [1], the AUC(0-inf) fell in the range of 1 to 5 µg·h/mL. Further, the DC50 in data set [2] was less than 0.01 µM. Further, in data set [3], the IC50 was 4 nM.
In the same order, the values of `O=C1CCC(N2C(=O)c3ccc(N[C@H]4C[C@@H](Oc5ccc(C6(c7ccc(OCc8ccnc(N9CC%10(COC%10)C9)n8)cc7)CCCC6)cc5)C4)cc3C2=O)C(=O)N1` (stereo partly drawn) [Example 361, 5-(((1s,3s)-3-(4-(1-(4-((2-(2-oxa-6-azaspiro[3.3]heptane-6-yl)pyrimidin-4-yl)methoxy)phenyl)cyclopentyl)phenoxy)cyclobutyl)amino)-2-(2,6-dioxopiperidin-3-yl)isoindolin-1,3-dione] are 1 to 5 µg·h/mL, less than 0.01 µM and 8 nM.
In the same order, the values of `O=C1CCC(N2C(=O)c3ccc(N[C@H]4C[C@H](Oc5ccc(S(=O)(=O)c6ccc(OCc7ccnc(N8CC9(COC9)C8)n7)cc6)cc5)C4)cc3C2=O)C(=O)N1` (stereo partly drawn) [Example 362, 5-(((1r,3r)-3-(4-((4-((2-(2-oxa-6-azaspiro[3.3]heptane-6-yl)pyrimidin-4-yl)methoxy)phenyl)sulfonyl)phenoxy)cyclobutyl)amino)-2-(2,6-dioxopiperidin-3-yl)isoindolin-1,3-dione] are 0.1 to 1 µg·h/mL, less than 0.01 µM and 20 nM.
In the same order, the values of `C=CC(c1ccc(OCc2ccnc(N3CC4(COC4)C3)n2)cc1)c1ccc(O[C@H]2C[C@H](Nc3ccc4c(c3)C(=O)N(C3CCC(=O)NC3=O)C4=O)C2)cc1` (stereo partly drawn) [Example 367] are 1 to 5 µg·h/mL, less than 0.01 µM and 8 nM.
Take `C=CC(c1ccc(Oc2ccc(-n3nccn3)nn2)cc1)c1ccc(O[C@H]2C[C@H](Nc3ccc4c(c3)C(=O)N(C3CCC(=O)NC3=O)C4=O)C2)cc1` (stereo partly drawn) [Example 371, 5-(((1r,3r)-3-(4-(1-(4-((6-(2H-1,2,3-triazole-2-yl)pyridazine-3-yl)oxy)phenyl)allyl)phenoxy)cyclobutyl)amino)-2-(2,6-dioxopiperidin-3-yl)isoindolin-1,3-dione]: in data set [1], the AUC(0-inf) is 5 to 30 µg·h/mL. Also, the DC50 in data set [2] is less than 0.01 µM. Besides, the IC50 in data set [3] came to 9 nM.
In the same order, the values of `C=CC(c1ccc(Oc2cnc(-n3nccn3)nc2)cc1)c1ccc(O[C@H]2C[C@H](Nc3ccc4c(c3)C(=O)N(C3CCC(=O)NC3=O)C4=O)C2)cc1` (stereo partly drawn) [Example 372, 5-(((1r,3r)-3-(4-(1-(4-((2-(2H-1,2,3-triazole-2-yl)pyrimidin-5-yl)oxy)phenyl)allyl)phenoxy)cyclobutyl)amino)-2-(2,6-dioxopiperidin-3-yl)isoindolin-1,3-dione] are 5 to 30 µg·h/mL, less than 0.01 µM and 8 nM.
In the same order, the values of `C=CC(c1ccc(Oc2cnc(-c3nnc(C)o3)nc2)cc1)c1ccc(O[C@H]2C[C@H](Nc3ccc4c(c3)C(=O)N(C3CCC(=O)NC3=O)C4=O)C2)cc1` (stereo partly drawn) [Example 373, 2-(2,6-dioxopiperidin-3-yl)-5-(((1r,3r)-3-(4-(1-(4-((2-(5-methyl-1,3,4-oxadiazol-2-yl)pyrimidin-5-yl)oxy)phenyl)allyl)phenoxy)cyclobutyl)amino)isoindolin-1,3-dione] are 5 to 30 µg·h/mL, less than 0.01 µM and 13 nM.
In the same order, the values of `CC(O)c1ncc(Oc2ccc(C3(c4ccc(O[C@H]5C[C@H](Nc6ccc7c(c6)C(=O)N(C6CCC(=O)NC6=O)C7=O)C5)cc4)CC3)cc2)cn1` (stereo partly drawn) [Example 377, 2-(2,6-dioxopiperidin-3-yl)-5-(((1r,3r)-3-(4-(1-(4-((2-(1-hydroxylethyl)pyrimidin-5-yl)oxy)phenyl)cyclopropyl)phenoxy)cyclobutyl)amino)isoindolin-1,3-dione] are 5 to 30 µg·h/mL, less than 0.01 µM and 12 nM.
For the molecule `Cc1nnc(-c2cccc(Oc3ccc(C(C)(C)c4ccc(O[C@H]5C[C@H](Nc6ccc7c(c6)C(=O)N(C6CCC(=O)NC6=O)C7=O)C5)cc4)cc3)n2)o1` (stereo partly drawn) [Example 423], the AUC(0-inf) in data set [1] was in the range of 5 to 30 µg·h/mL. The DC50 in data set [2] was less than 0.01 µM. In addition, in data set [3], the 50% inhibitory concentration (IC50) is 3 nM.
With `Cc1noc(-c2nccc(Oc3ccc(C(C)(C)c4ccc(O[C@H]5C[C@H](Nc6ccc7c(c6)C(=O)N(C6CCC(=O)NC6=O)C7=O)C5)cc4)cc3)n2)n1` (stereo partly drawn) [Example 426], the AUC(0-inf) in data set [1] lay in the range of 1 to 5 µg·h/mL. The DC50 in data set [2] was less than 0.01 µM. Besides, the IC50 in data set [3] came to 7 nM.
In the same order, the values of `CC(C)(c1ccc(OCc2ccnc(-n3nccn3)n2)cc1)c1ccc(O[C@H]2C[C@@H](Nc3ccc4c(c3)C(=O)N(C3CCC(=O)NC3=O)C4=O)C2)cc1` (stereo partly drawn) [Example 446, 5-(((1s,3s)-3-(4-(2-(4-((2-(2H-1,2,3-triazol-2-yl)pyrimidin-4-yl)methoxy)phenyl)propan-2-yl)phenoxy)cyclobutyl)amino)-2-(2,6-dioxopiperidin-3-yl)isoindolin-1,3-dione] are 5 to 30 µg·h/mL, 0.011 to 0.1 µM and 9 nM.
In the same order, the values of `CC1(O)CN(c2nccc(COc3ccc(C(C)(C)c4ccc(O[C@H]5C[C@@H](Nc6ccc7c(c6)C(=O)N(C6CCC(=O)NC6=O)C7=O)C5)cc4)cc3)n2)C1` (stereo partly drawn) [Example 455] are 1 to 5 µg·h/mL, less than 0.01 µM and 5 nM.
In the same order, the values of `CN(C)[C@@H]1CCN(c2nccc(COc3ccc(C(C)(C)c4ccc(O[C@H]5C[C@@H](Nc6ccc7c(c6)C(=O)N(C6CCC(=O)NC6=O)C7=O)C5)cc4)cc3)n2)C1` (stereo partly drawn) [Example 456] are 5 to 30 µg·h/mL, less than 0.01 µM and 12 nM.
Consider `CC(C)(c1ccc(OCc2ccnc(-c3nnco3)n2)cc1)c1ccc(O[C@H]2C[C@@H](Nc3ccc4c(c3)C(=O)N(C3CCC(=O)NC3=O)C4=O)C2)cc1` (stereo partly drawn) [Example 464, 5-(((1s,3s)-3-(4-(2-(4-((2-(1,3,4-oxadiazol-2-yl)pyrimidin-4-yl)methoxy)phenyl)propan-2-yl)phenoxy)cyclobutyl)amino)-2-(2,6-dioxopiperidin-3-yl)isoindolin-1,3-dione], for which the AUC(0-inf) in data set [1] was in the range of 0.1 to 1 µg·h/mL. Further, in data set [2], the DC50 was less than 0.01 µM. In data set [3], the IC50 turned out to be 4 nM.
In the same order, the values of `Cc1nnc(-c2ncc(Oc3ccc(C4(c5ccc(O[C@H]6C[C@H](Nc7ccc8c(c7)C(=O)N(C7CCC(=O)NC7=O)C8=O)C6)cc5)CCCC4)cc3)cn2)o1` (stereo partly drawn) [Example 483] are 5 to 30 µg·h/mL, less than 0.01 µM and 2 nM.
With `CC(C)(c1ccc(CN2CC(Nc3ccc4c(c3)C(=O)N(C3CCC(=O)NC3=O)C4=O)C2)cc1)c1ccc(OCc2ccnc(N3CC4(COC4)C3)n2)cc1` (stereo not drawn) [Example 502], the AUC(0-inf) in data set [1] is 1 to 5 µg·h/mL. This molecule yielded a DC50 in data set [2] of less than 0.01 µM. Moreover, in data set [3], the half-inhibitory concentration (IC50) stood at 12 nM.

For the origin of these results see patent publication US20250051347A1, “BIFUNCTIONAL CHIMERIC HETEROCYCLIC COMPOUND AND USE THEREOF AS ANDROGEN RECEPTOR DEGRADER” (Hinova Pharmaceuticals, Inc., priority 2021, published 2025).
